# Like-named read-outs stand apart in the source and are kept apart here.
# Columns and labels:
# MDM4/1 = molecular target: T1, MDM4/1 (Homo sapiens, UniProt O15151); settings: MLSMR screening network data; cited from earlier work
# T1 sequence (O15151 1-490): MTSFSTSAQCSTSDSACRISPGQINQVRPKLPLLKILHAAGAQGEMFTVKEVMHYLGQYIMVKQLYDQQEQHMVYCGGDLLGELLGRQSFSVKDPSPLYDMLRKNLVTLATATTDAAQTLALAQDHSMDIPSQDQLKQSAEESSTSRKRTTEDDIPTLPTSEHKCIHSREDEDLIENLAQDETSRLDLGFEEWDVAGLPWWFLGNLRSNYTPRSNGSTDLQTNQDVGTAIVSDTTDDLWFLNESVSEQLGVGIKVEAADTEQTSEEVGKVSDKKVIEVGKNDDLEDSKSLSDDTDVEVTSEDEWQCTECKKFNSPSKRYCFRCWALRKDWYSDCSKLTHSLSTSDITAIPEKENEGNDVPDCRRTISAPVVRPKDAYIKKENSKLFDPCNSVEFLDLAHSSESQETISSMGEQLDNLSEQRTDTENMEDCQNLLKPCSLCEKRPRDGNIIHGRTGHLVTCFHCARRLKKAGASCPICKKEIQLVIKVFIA
# Shiga toxins A and B = settings: cited from earlier work
# Cathepsin = Cathepsin cleavage of GP
# [1] = tested on: Baby hamster kidney fibroblasts (BHK) cells; experiment: Acridine orange assay for acidification blockers; assay type: cell-based
# HeLa cells [2] = assay type: cell-based, human; settings: for Transferrin uptake: 50 μM
# NPC1 C-loop = molecular target: T2, NPC1 C-loop (Homo sapiens, UniProt O15118); experiment: NPC1 C-loop binding
# T2 construct: C-loop
# T2 sequence (O15118 372-620 limits assumed): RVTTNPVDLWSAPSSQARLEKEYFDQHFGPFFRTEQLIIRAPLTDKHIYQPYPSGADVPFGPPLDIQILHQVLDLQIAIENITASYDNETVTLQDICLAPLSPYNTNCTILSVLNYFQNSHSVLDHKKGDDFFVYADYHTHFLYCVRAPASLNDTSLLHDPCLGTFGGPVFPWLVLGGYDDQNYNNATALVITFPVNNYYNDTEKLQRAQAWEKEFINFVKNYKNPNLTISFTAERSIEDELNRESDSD
# EBOV [3] = assay type: cell-based, Zaire Ebolavirus (Mayinga strain)
# MARV = experiment: microbe, parasite or virus in culture; assay type: cell-based, Marburgvirus (Musoke strain)
# EBOV [4] = experiment: microbe, parasite or virus in culture; assay type: cell-based, Zaire Ebolavirus (Mayinga strain)
# MDM2/A = MDM2/A (Homo sapiens, UniProt Q00987); settings: MLSMR screening network data; cited from earlier work
# Synuclein = settings: PubChem data; cited from earlier work
# HeLa cells [5] = assay type: cell-based, human; settings: for Dextran Uptake: 50 μM
# EBOV [6] = experiment: organism not typed; assay type: cell-based, Zaire Ebolavirus (Mayinga strain)
# Janus kinase 2 = settings: PubChem data; cited from earlier work
# HeLa cells [7] = settings: human
# IL-1-Beta = settings: PubChem / MLSMR data; cited from earlier work
# EEA1-positive vesicles = assay type: cell-based, human
# [8] = molecular target: T3, acetylcholine receptor M1 (Homo sapiens, UniProt P11229); settings: PubChem data; cited from earlier work
# T3 sequence (P11229 1-460): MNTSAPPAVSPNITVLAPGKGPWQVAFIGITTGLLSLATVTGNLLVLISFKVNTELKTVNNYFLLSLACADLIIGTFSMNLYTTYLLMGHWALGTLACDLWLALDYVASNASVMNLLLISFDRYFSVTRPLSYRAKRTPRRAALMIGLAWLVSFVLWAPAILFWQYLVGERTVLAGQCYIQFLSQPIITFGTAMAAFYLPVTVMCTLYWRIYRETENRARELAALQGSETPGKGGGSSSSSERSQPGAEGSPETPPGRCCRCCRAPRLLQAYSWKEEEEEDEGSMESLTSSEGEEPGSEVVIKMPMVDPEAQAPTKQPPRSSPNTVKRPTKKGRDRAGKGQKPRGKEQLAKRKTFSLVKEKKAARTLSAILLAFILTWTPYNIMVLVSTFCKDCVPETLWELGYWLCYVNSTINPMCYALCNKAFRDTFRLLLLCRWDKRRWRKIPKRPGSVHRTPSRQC
# LAMP1-positive vesicles = assay type: cell-based, human
# TDP1 = TDP1 (Homo sapiens, UniProt Q9NUW8); settings: PubChem data; cited from earlier work
# TDP1, sequence (Q9NUW8 whole entry, species assumed): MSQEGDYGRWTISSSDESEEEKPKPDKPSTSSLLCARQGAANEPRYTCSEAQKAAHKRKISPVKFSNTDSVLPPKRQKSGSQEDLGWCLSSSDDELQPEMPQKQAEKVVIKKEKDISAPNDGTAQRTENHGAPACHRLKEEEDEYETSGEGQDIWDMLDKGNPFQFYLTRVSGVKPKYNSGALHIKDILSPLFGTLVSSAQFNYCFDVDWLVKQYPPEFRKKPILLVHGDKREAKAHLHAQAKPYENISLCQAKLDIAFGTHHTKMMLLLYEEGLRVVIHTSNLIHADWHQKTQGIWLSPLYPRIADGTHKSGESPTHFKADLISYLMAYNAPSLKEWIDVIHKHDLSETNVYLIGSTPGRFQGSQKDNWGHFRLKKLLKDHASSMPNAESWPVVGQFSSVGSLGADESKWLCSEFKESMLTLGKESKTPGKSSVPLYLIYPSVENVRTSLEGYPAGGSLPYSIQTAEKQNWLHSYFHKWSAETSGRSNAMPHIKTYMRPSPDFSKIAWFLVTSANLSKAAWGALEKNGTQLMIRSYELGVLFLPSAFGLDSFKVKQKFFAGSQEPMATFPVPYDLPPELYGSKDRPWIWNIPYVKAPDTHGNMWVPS
# MDM2/A, sequence (Q00987 whole entry, species assumed): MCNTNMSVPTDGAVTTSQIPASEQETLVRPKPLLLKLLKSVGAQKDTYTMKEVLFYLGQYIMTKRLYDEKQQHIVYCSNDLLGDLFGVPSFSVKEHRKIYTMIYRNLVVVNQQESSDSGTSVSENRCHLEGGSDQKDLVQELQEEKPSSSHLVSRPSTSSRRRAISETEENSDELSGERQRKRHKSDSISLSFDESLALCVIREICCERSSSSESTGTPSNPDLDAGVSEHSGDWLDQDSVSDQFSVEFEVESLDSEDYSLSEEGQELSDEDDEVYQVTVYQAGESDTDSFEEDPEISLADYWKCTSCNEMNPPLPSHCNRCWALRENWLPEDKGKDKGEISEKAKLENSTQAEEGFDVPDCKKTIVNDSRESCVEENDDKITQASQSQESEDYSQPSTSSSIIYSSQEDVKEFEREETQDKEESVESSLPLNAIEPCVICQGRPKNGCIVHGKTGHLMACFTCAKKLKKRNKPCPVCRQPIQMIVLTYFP
structure (smiles),measurement,setting,value
"O=[N+]([O-])c1cc(S(=O)(=O)NCCN2CCOCC2)ccc1Sc1nnnn1-c1ccccc1 [MLS000394177, N-(2-morpholin-4-ylethyl)-3-nitro-4-(1-phenyltetrazol-5-yl)sulfanylbenzenesulfonamide]",inhibition of MDM4/1,MDM4/1,identified as inhibitors
same,Shiga toxins A and B,Shiga toxins A and B,active
same,Cathepsin clevage,Cathepsin,0
same,Acidification Block,[1],+
same,effect on endosomal acidification,[1],affected endosomal acidification
same,effect on transferrin uptake,HeLa cells [2],no effect on transferrin uptake
same,Transferrin uptake,HeLa cells [2],0
same,NPC1 C-loop binding,NPC1 C-loop,0
same,Surface interaction,EBOV [3],+
same,Uninfected cell number,EBOV [3],0
same,enhancement of virus interaction with cells,EBOV [3],44%
same,reduction of number of viral particles inside the cell body,EBOV [3],62%
same,Curve class (MARV),MARV,1.3
same,MARV (Curve class),MARV,1.3
same,IC50,"MARV; Orthomarburgvirus, HeLa, read-out: IC-50 (MARV)",12.9 µM
same,IC50,"MARV; Orthomarburgvirus, HeLa, read-out: MARV HeLa IC50 (μM)",12.9 µM
same,IC50,"EBOV [4]; Zaire ebolavirus, Macrophage, read-out: Activity in macrophages IC50 (μM)",8.6 µM
same,inhibition of MDM2/A,MDM2/A,identified as inhibitors
same,Synuclein activity,Synuclein,active
same,reduction of uptake of fluorescently labeled dextran,HeLa cells [5],approximately 91%
same,Dextran Uptake,HeLa cells [5],−
same,Curve Class (EBOV),EBOV [6],1.6
same,EBOV (curve class),EBOV [6],1.6
same,"potency for Ebolavirus inhibition, times better than EIPA",EBOV [6],25 times
same,EC50,"EBOV [6]; HeLa, read-out: EC50 for Ebolavirus inhibition",1.9 µM
same,IC50,"EBOV [6]; Zaire ebolavirus, HeLa, read-out: EBOV HeLa IC50 (μM)",1.9 µM
same,IC50,"EBOV [6]; Zaire ebolavirus, HeLa, read-out: IC-50 (EBOV)",1.89 µM
same,inhibition of Janus kinase 2 (JNK2),Janus kinase 2,active
same,toxic concentration (not toxic up to / toxic at),HeLa cells [7],> 100 µM
same,secretion of IL-1-Beta,IL-1-Beta,inhibit secretion of IL-1-Beta
CC(C)N1CCN(C(=O)c2ccc(OC3CCN(CCc4ccccc4)CC3)cc2)CC1 [MLS001101371],Cathepsin clevage,Cathepsin,0
same,Effect on EEA1,EEA1-positive vesicles,0
same,VLP colocalization with EEA1,EEA1-positive vesicles,colocalized with EEA1 positive vesicles normally
same,antagonist of acetylcholine receptor M1,[8],identified
same,Acidification Block,[1],+
same,effect on transferrin uptake,HeLa cells [2],do not inhibit transferrin uptake
same,Transferrin uptake,HeLa cells [2],0
same,NPC1 C-loop binding,NPC1 C-loop,0
same,Surface interaction,EBOV [3],0
same,Uninfected cell number,EBOV [3],0
same,Curve class (MARV),MARV,1.3
same,MARV (Curve class),MARV,1.3
same,IC50,MARV; read-out: IC-50 (MARV),13 µM
same,IC50,MARV; read-out: MARV HeLa IC50,13 µM
same,IC50,EBOV [4]; read-out: Activity in macrophages IC50,24.6 µM
same,Dextran Uptake,HeLa cells [5],0
same,Curve Class (EBOV),EBOV [6],1.3
same,EBOV (curve class),EBOV [6],1.3
same,IC50,EBOV [6]; read-out: EBOV HeLa IC50,12.9 µM
same,IC50,EBOV [6]; read-out: IC-50 (EBOV),12.9 µM
same,Effect on LAMP1,LAMP1-positive vesicles,−
same,reduction of number of VLPs present in LAMP1-positive vesicles,LAMP1-positive vesicles,41%
same,antagonist of DNA repair gene TDP1,TDP1,identified

# From patent US10111881B2 (priority 2016, dated 2018)
